Data from patent publication US4385055A, “2-Acetyl-and 2-propionylpyridine thiosemicarbazones as antimalarials” (The United States of America as represented by the …, priority 1981, dated 1983).
≈ marks a conversion by molar mass, not a printed value. Read-outs that look alike come from different tables or passages of the source.

Key:
Format in all cases: cell-based
Neisseria gonorrhoeae = experiment: Agar dilution MIC, Neisseria gonorrhoeae isolates (Test 3); settings: 24 h
Method: Compounds were tested against six Neisseria gonorrhoeae isolates. The bacteria used were provided by the Department of Bacterial Diseases of the Walter Reed Army Institute of Research. The test procedure used was the agar dilution method in duplicate as outlined by J. C. Sherris on pages 411-412 (loc. cit.). GC Medium (Difco) with a 2% defined supplement added as described by D. S. Kellogg et al. [J. Bact. 85:1274-1279 (1963)] was used as the media. The compounds were dissolved in DMSO (1.0 mg/mL), diluted with GC broth (GC Medium without agar) to the appropriate concentration, and added to the GC Medium at 55°-56° C. The latter was then poured and allowed to solidify. A penicillin standard was also prepared with initial dilutions as described by J. C. Sherris followed by dilutions with GC broth and addition to the GC Medium at 55°-56° C. as above. The inoculum was 1:200 GC broth dilution of a suspension of colony isolates after the suspension was adjusted visually to the turbidity standard described by J. M. Matsen and A. L. Barr on page 422 in "Manual of Clinical Microbiology," 2nd ed., E. Lennette, E. H. Spaulding, and J. P. Truant, Ed. (American Society for Microbiology, Washington, D.C., 1974). The plates were inoculated with a replicator and incubated at 37° C. under 5-10% carbon dioxide.

Neisseria meningitidis = experiment: Macro broth dilution MIC, Neisseria meningitidis isolates (Test 2); settings: for MIC: Neisseria meningitidis, 24 h, read-out: Minimum Inhibitory Concentration
Method: Compounds were tested against five isolates of Neisseria meningitidis. The bacterial isolates were provided by the Department of Bacterial Diseases of the Walter Reed Army Institute of Research. The test procedure used was the macro broth dilution method in duplicate outlined by J. C. Sherris on pages 414-415 (loc. cit.). The test compounds and controls were prepared as in Test 1 above. Ampicillin and penicillin standards were initially diluted as described by J. C. Sherris on pages 411-412 (loc. cit.) followed by dilution with Mueller-Hinton broth. The tubes were incubated at 37° C. under 5-10% carbon dioxide.

Staphylococcus aureus = experiment: Macro broth dilution MIC, Staphylococcus aureus isolates (Test 1); settings: 24 h, read after 24 hours, read-out: Minimum Inhibitory Concentration
Method: (§1) Compounds were tested against five isolates of Staphylococcus aureus and five isolates of Group D Enterococcus. The bacteria used were isolated from patients at the Walter Reed Army Medical Center, Washington, D.C. The test procedure used was the macro broth dilution method in duplicate as outlined by J. C. Sherris on pages 414-415 in "Manual of Clinical Microbiology," 2nd ed., E. Lennette, E. H. Spaulding, and J. P. Truant, Ed. (American Society for Microbiology, Washington, D.C., 1974). Each compound was dissolved in DMSO (12.8 mg/mL) and then diluted with Mueller-Hinton broth to obtain the desired dilutions. Tubes containing the highest quantities of DMSO with no compound present were run as controls.

Group D Enterococcus = experiment: Macro broth dilution MIC, Group D Enterococcus isolates (Test 1); settings: 24 h, read after 24 hours, read-out: Minimum Inhibitory Concentration
Method: as §1

Mycobacterium smegmatis = experiment: MIC against Mycobacterium smegmatis strains (Test 4); settings: Mycolicibacterium smegmatis, read-out: Minimum Inhibitory Concentration
Method: Compounds were tested against four strains of Mycobacterium smegmatis. The test procedure used was as mentioned by N. E. Morrison [Int. J. of Leprosy 39:34-43 (1971)]. The strain numbers refer to Mycobacterium smegmatis ATCC 607, a DDS-resistant daughter strain, a Rifampin-resistant daughter strain, and a Clofazimine-resistant daughter strain, respectively.

[1] = test system: Mycobacterium intracellulare; experiment: Broth dilution MIC, Mycobacterium intracellulare strains (Test 6); settings: read-out: Minimum Inhibitory Concentration
[2] = Neisseria gonorrhoeae isolate 135, read after 24 hours, read-out: Minimum Inhibitory Concentration
[3] = Neisseria gonorrhoeae isolate 161, read after 24 hours, read-out: Minimum Inhibitory Concentration
[4] = Neisseria gonorrhoeae isolate 278, read after 24 hours, read-out: Minimum Inhibitory Concentration
[5] = Neisseria gonorrhoeae isolate 455, read after 24 hours, read-out: Minimum Inhibitory Concentration
[6] = Neisseria gonorrhoeae isolate 456, read after 24 hours, read-out: Minimum Inhibitory Concentration
[7] = Neisseria gonorrhoeae isolate 602, read after 24 hours, read-out: Minimum Inhibitory Concentration
[8] = Neisseria meningitidis isolate 7957, read after 24 hours
[9] = Neisseria meningitidis isolate 7990, read after 24 hours
[10] = Neisseria meningitidis isolate 8005, read after 24 hours
[11] = Neisseria meningitidis isolate 8006, read after 24 hours
[12] = Neisseria meningitidis isolate 8011, read after 24 hours
[13] = Staphylococcus aureus isolate I
[14] = Staphylococcus aureus isolate III
[15] = Staphylococcus aureus isolate IV
[16] = Staphylococcus aureus isolate V
[17] = ATCC607, Mycobacterium smegmatis strain I (ATCC 607)
[18] = Mycobacterium smegmatis strain II (DDS-resistant daughter strain)
[19] = Mycobacterium smegmatis strain III (Rifampin-resistant daughter strain)
[20] = Mycobacterium smegmatis strain IV (Clofazimine-resistant daughter strain)

| Structure (SMILES) | MIC (Neisseria gonorrhoeae; [2]) | MIC (Neisseria gonorrhoeae; [3]) | MIC (Neisseria gonorrhoeae; [4]) | MIC (Neisseria gonorrhoeae; [5]) | MIC (Neisseria gonorrhoeae; [6]) | MIC (Neisseria gonorrhoeae; [7]) | MIC (Neisseria meningitidis; [8]) | MIC (Neisseria meningitidis; [9]) | MIC (Neisseria meningitidis; [10]) | MIC (Neisseria meningitidis; [11]) | MIC (Neisseria meningitidis; [12]) | MIC (Mycobacterium smegmatis; [17]) | MIC (Mycobacterium smegmatis; [19]) | other results |
| --- | --- | --- | --- | --- | --- | --- | --- | --- | --- | --- | --- | --- | --- | --- |
| CC(=NNC(=S)NCc1ccccc1C)c1ccccn1 [N, 2-Acetylpyridine 4-(2-methylbenzyl)-3-thiosemicarbazone] |  |  |  |  |  |  |  |  |  |  |  |  |  | MIC (Staphylococcus aureus; [13]): 2 mg/L (≈ 6.7 µM); MIC (Staphylococcus aureus; Staphylococcus aureus isolate II): 2 mg/L (≈ 6.7 µM); MIC (Staphylococcus aureus; [14]): 2 mg/L (≈ 6.7 µM); MIC (Staphylococcus aureus; [15]): 2 mg/L (≈ 6.7 µM); MIC (Staphylococcus aureus; [16]): 1 mg/L (≈ 3.35 µM) |
| CC1(C)S[C@@H]2[C@H](NC(=O)Cc3ccccc3)C(=O)N2[C@H]1C(=O)O [Penicillin, reference compound] |  |  |  |  |  |  |  |  |  |  |  |  |  | MIC (Neisseria gonorrhoeae; read-out: Minimum Inhibitory Concentration, Neisseria gonorrhoeae isolate 135, read after 24 hours): 0.25 mg/L (≈ 0.748 µM); MIC (Neisseria gonorrhoeae; read-out: Minimum Inhibitory Concentration, Neisseria gonorrhoeae isolate 161, read after 24 hours): 0.125 mg/L (≈ 0.374 µM); MIC (Neisseria gonorrhoeae; read-out: Minimum Inhibitory Concentration, Neisseria gonorrhoeae isolate 278, read after 24 hours): < 0.062 mg/L; MIC (Neisseria gonorrhoeae; read-out: Minimum Inhibitory Concentration, Neisseria gonorrhoeae isolate 455, read after 24 hours): 0.125 mg/L (≈ 0.374 µM); MIC (Neisseria gonorrhoeae; read-out: Minimum Inhibitory Concentration, Neisseria gonorrhoeae isolate 456, read after 24 hours): > 16 mg/L; MIC (Neisseria gonorrhoeae; read-out: Minimum Inhibitory Concentration, Neisseria gonorrhoeae isolate 602, read after 24 hours): > 16 mg/L; Minimum Inhibitory Concentration (Neisseria meningitidis; [9]): 0.031 µg/mL; Minimum Inhibitory Concentration (Neisseria meningitidis; [11]): 0.031 µg/mL; Minimum Inhibitory Concentration (Neisseria meningitidis; [12]): 0.031 µg/mL; MIC (Neisseria meningitidis): 0.031 mg/L (≈ 0.0927 µM) |
| CC(=NNC(=S)N(C)C)c1ccccn1 [R, 2-Acetylpyridine 4,4-dimethyl-3-thiosemicarbazone] | 0.004 mg/L (≈ 0.018 µM) | 0.004 mg/L (≈ 0.018 µM) | 0.008 mg/L (≈ 0.036 µM) | 0.008 mg/L (≈ 0.036 µM) | 0.008 mg/L (≈ 0.036 µM) | 0.008 mg/L (≈ 0.036 µM) | 0.062 mg/L (≈ 0.279 µM) | 0.125 mg/L (≈ 0.562 µM) | 0.062 mg/L (≈ 0.279 µM) | 0.062 mg/L (≈ 0.279 µM) | 0.125 mg/L (≈ 0.562 µM) | 2 mg/L (≈ 9 µM) | 2 mg/L (≈ 9 µM) | MIC (Mycobacterium smegmatis; [18]): 3 mg/L (≈ 13.5 µM); MIC (Mycobacterium smegmatis; [20]): 2 mg/L (≈ 9 µM) |
| CO[C@H]1/C=C/O[C@@]2(C)Oc3c(C)c(O)c4c(O)c(c(/C=N/N5CCN(C)CC5)c(O)c4c3C2=O)NC(=O)/C(C)=C\C=C\[C@H](C)[C@H](O)[C@@H](C)[C@@H](O)[C@@H](C)[C@H](OC(C)=O)[C@@H]1C [Rifampin, reference compound] |  |  |  |  |  |  |  |  |  |  |  | 1 mg/L (≈ 1.22 µM) | 250 mg/L (≈ 304 µM) |  |
| CC(=NNC(=S)N1CCN(c2ccccn2)CC1)c1ccccn1.Cl.Cl [W, 1,4-Diaza-4-(2-pyridyl)cyclohexane-1-thiocarboxylic acid 2-[1-(2-pyridyl)-ethylidene]hydrazide dihydrochloride] |  |  |  |  |  |  |  |  |  |  |  | 6 mg/L | 5 mg/L | MIC (Mycobacterium smegmatis; [18]): 10 mg/L; MIC (Mycobacterium smegmatis; [20]): 6 mg/L |
| CC(=NNC(=S)N1CCCCCCCCCCCC1)c1ccccn1 [Z, 1-Azacyclotridecane-1-thiocarboxylic acid 2-[1-(2-pyridyl)ethylidene]hydrazide] |  |  |  |  |  |  |  |  |  |  |  |  |  | MIC ([1]; Mycobacterium intracellulare strain I): 10 mg/L (≈ 27.7 µM); MIC ([1]; Mycobacterium intracellulare strain II): 1 mg/L (≈ 2.77 µM); MIC ([1]; Mycobacterium intracellulare strain III): 1 mg/L (≈ 2.77 µM); MIC ([1]; Mycobacterium intracellulare strain IV): 10 mg/L (≈ 27.7 µM); MIC ([1]; Mycobacterium intracellulare strain V): 10 mg/L (≈ 27.7 µM); MIC ([1]; Mycobacterium intracellulare strain VI): 10 mg/L (≈ 27.7 µM) |

The next lines start with results.

| MIC (Neisseria gonorrhoeae; [2]) | MIC (Neisseria gonorrhoeae; [3]) | MIC (Neisseria gonorrhoeae; [4]) | MIC (Neisseria gonorrhoeae; [5]) | MIC (Neisseria gonorrhoeae; [6]) | MIC (Neisseria gonorrhoeae; [7]) | MIC (Neisseria meningitidis; [8]) | MIC (Neisseria meningitidis; [9]) | MIC (Neisseria meningitidis; [10]) | MIC (Neisseria meningitidis; [11]) | MIC (Neisseria meningitidis; [12]) | Structure (SMILES) | MIC (Mycobacterium smegmatis; [17]) | MIC (Mycobacterium smegmatis; [19]) | other results |
| --- | --- | --- | --- | --- | --- | --- | --- | --- | --- | --- | --- | --- | --- | --- |
| 0.016 mg/L (≈ 0.0677 µM) | 0.004 mg/L (≈ 0.0169 µM) | 0.016 mg/L (≈ 0.0677 µM) | 0.008 mg/L (≈ 0.0338 µM) | 0.008 mg/L (≈ 0.0338 µM) | 0.008 mg/L (≈ 0.0338 µM) |  |  |  |  |  | CCC(=NNC(=S)N(C)C)c1ccccn1 [JJ, 2-Propionylpyridine 4,4-dimethyl-3-thiosemicarbazone] |  |  |  |
| 0.031 mg/L (≈ 0.0913 µM) | < 0.008 mg/L | 0.031 mg/L (≈ 0.0913 µM) | 0.031 mg/L (≈ 0.0913 µM) | 0.016 mg/L (≈ 0.0471 µM) | 0.031 mg/L (≈ 0.0913 µM) | 0.062 mg/L (≈ 0.183 µM) | 0.062 mg/L (≈ 0.183 µM) | 1 mg/L (≈ 2.95 µM) | 0.062 mg/L (≈ 0.183 µM) | 0.125 mg/L (≈ 0.368 µM) | CC(=NNC(=S)N1CCN(c2ccccc2)CC1)c1ccccn1 [K, 1,4-Diaza-4-phenylcyclohexane-1-thiocarboxylic acid 2-[1-(2-pyridyl)ethylidene]hydrazide] |  |  |  |
|  |  |  |  |  |  | 0.062 mg/L (≈ 0.202 µM) | 0.125 mg/L (≈ 0.408 µM) | 0.5 mg/L (≈ 1.63 µM) | 0.062 mg/L (≈ 0.202 µM) | 0.5 mg/L (≈ 1.63 µM) | CC(=NNC(=S)N(CC(C)C)CC(C)C)c1ccccn1 [O, 2-Acetylpyridine 4,4-diisobutyl-3-thiosemicarbazone] |  |  | MIC (Group D Enterococcus; Group D Enterococcus isolate I): 2 mg/L (≈ 6.53 µM); MIC (Group D Enterococcus; Group D Enterococcus isolate II): 2 mg/L (≈ 6.53 µM); MIC (Group D Enterococcus; Group D Enterococcus isolate III): 2 mg/L (≈ 6.53 µM); MIC (Group D Enterococcus; Group D Enterococcus isolate IV): 4 mg/L (≈ 13.1 µM); MIC (Group D Enterococcus; Group D Enterococcus isolate V): 2 mg/L (≈ 6.53 µM); MIC (Staphylococcus aureus; [13]): 0.5 mg/L (≈ 1.63 µM); MIC (Staphylococcus aureus; [14]): 1 mg/L (≈ 3.26 µM); MIC (Staphylococcus aureus; [15]): 0.5 mg/L (≈ 1.63 µM); MIC (Staphylococcus aureus; [16]): 0.5 mg/L (≈ 1.63 µM) |
